Reference: ChEMBL document CHEMBL5029168, “Discovery of novel ID2 antagonists from pharmacophore-based virtual screening as potential therapeutics for glioma” (Bioorg Med Chem, 2021)

How the values were obtained:
[1] = test system: GL261; assay: Cytotoxicity against mouse GL261 cells assessed as reduction in cell viability incubated for 24 hrs by CCK8 assay; type: functional, cell-based; conditions: GL261, 24 h
[2] = test system: Hs 683; assay: Cytotoxicity against human Hs 683 cells assessed as reduction in cell viability incubated for 24 hrs by CCK8 assay; type: functional, cell-based; conditions: Hs 683, 24 h
[3] = test system: U-87 MG; assay: Cytotoxicity against human U87 cells assessed as reduction in cell viability incubated for 24 hrs by CCK8 assay; type: functional, cell-based, U-87MG ATCC
[4] = Aqueous solubility of compound at up to 80 uM measured after 10 mins by optical microscopic analysis; type: physicochemical; conditions: buffer

Compound	IC50 [1] [µM]	IC50 [2] [µM]	IC50 [3] [µM]	solubility [4]
O=C(C1=C(O)C(=O)N(CCc2c[nH]c3ccccc23)[C@@H]1c1cccc(O)c1)c1ccc(Cl)cc1	57.3	60.8	54.3	–
Cc1ccc(CN2C(=O)[C@](O)(CC(=O)c3ccc4c(c3)OCO4)c3cc(Br)ccc32)cc1	21.3	18.7	15.5	Insoluble
Cc1ccc(CNC(=O)Cn2c(CO)cnc2SCC(=O)Nc2ccc3c(c2)OCO3)cc1	50.1	41.5	37.8	–
CCN(C(=O)[C@H](Cc1ccccc1)NS(=O)(=O)c1cccc2nsnc12)c1ccccc1	60.6	69.8	66.3	–
CC1Oc2ccc(S(=O)(=O)Nc3ccc(CCC(=O)O)cc3)cc2NC1=O (stereo not given)	52.5	41.5	47.4	–
Cc1ccc(NC(=O)C[C@H]2SC(NC(c3ccc(F)cc3)c3c(O)[nH]c(=O)[nH]c3=O)=NC2=O)cc1C (stereo not given in full)	47.9	40.8	46.5	–
COc1ccc(Cn2c(SCC(=O)n3c4c(c5ccccc53)CCCC4)nc3ccccc32)cc1	90.4	91.4	88.5	–
O=C(NCCc1ccccc1)c1ccc(N2C[C@@H]3C[C@H](C2)c2cccc(=O)n2C3)c(NS(=O)(=O)c2cccc(Cl)c2)c1	48.1	55.3	56.2	–
